This assay relates to chromaffin cells permeabilized with digitonin. The assay is described as follows: Inhibition of the release of catecholamines induced by calcium in permeabilized chromaffin cells. The format is cell-based, bovine. The conditions noted are these: peptide at 1 mM, stimulated with calcium. As to the method:
The neuronal-exocytosis (neurosecretion) inhibiting capabilities of the peptides of the invention became evident through a test that evaluates the strength of said peptides in inhibiting the release of catecholamines induced by calcium in chromaffin cells permeabilized with a detergent [see Example 1.2.1]. Briefly, the chromaffin cell cultures are incubated with epinephrine and norepinephrine containing tritium, are permeabilized with digitonin, and stimulated with calcium, and the amount of radioactivity released by the cells to the extracellular medium, which is a reflection of the exocytosis of said tritium-containing catecholamines, is measured.
This test was performed to verify the neuronal exocytosis-inhibiting capabilities of the peptides synthesized in Example 1.1. In this test, the strength of said peptides is evaluated in inhibiting the release of catecholamines (norepinephrine and epinephrine) induced by calcium in chromaffin cells (obtained from suprarenal bovine glands) permeabilized with the detergent digitonin, in accordance with the method described by Gutiérrez el al. (1995 and 1997).
Briefly, the chromaffin cell cultures are incubated with [^3H]-epinephrine and [^3H]-norepinephrine, are permeabilized with 20 μM digitonin, and stimulated with calcium (10 μM), in the presence of the peptides to be tested (separate or mixed), and the amount of radioactivity released by the cells to the extracellular medium, which is a reflection of the exocytosis of [^3H]-epinephrine and [^3H]-norepinephrine, is measured.
For the substance “SEQ. ID. No. 2: hexapeptide from the amino end of protein SNAP-25 (EEMQRR)”, the “inhibition of the release of catecholamines (epinephrine and norepinephrine)” value (from here on “inhibition”) is reported as “approximately 20%”.

For the substance “SEQ. ID. No. 3: peptide with 13 amino acids from the amino end of protein SNAP-25 (ELEEMQRRADQLA)”, the “inhibition” value is reported as “approximately 35%”.

In the case of “SEQ. ID. No. 5: peptide from the carboxyl end of SNAP-25 [SEQ. ID. No. 4], (COOH) peptide (RIMEKADSNKTRIDEANQ)”, the “inhibition” value is on record as “approximately 40%”.

For the substance “SEQ. ID. No. 6: peptide from the carboxyl end of SNAP-25 [SEQ. ID. No. 4], (COOH) peptide (ADSNKTRIDEANQRATKML)”, the “inhibition” value is reported as “approximately 40%”.
